Laboratory results reported in patent US9034887B2, “Dihydroorotate dehydrogenase as antifungal drug target and quinazolinone-based inhibitors thereof” (F2G Limited, priority 2008, dated 2015).
Values after ≈ are worked out from the molar mass of the structure shown.

Assays:
[1] = molecular target: T1, Recombinant DHODH from C. albicans (Candida albicans, UniProt Q874I4); assay: DHODH inhibition screen (DCIP reduction, 600 nm), C. albicans enzyme; format: biochemical
T1 construct: His-tag; NusA (Nus-tag) fusion of vector pET43.1 (own knowledge of the vector) (N); made in house; host or cells: E. coli BL21 DE3
T1 sequence (Q874I4 57-444): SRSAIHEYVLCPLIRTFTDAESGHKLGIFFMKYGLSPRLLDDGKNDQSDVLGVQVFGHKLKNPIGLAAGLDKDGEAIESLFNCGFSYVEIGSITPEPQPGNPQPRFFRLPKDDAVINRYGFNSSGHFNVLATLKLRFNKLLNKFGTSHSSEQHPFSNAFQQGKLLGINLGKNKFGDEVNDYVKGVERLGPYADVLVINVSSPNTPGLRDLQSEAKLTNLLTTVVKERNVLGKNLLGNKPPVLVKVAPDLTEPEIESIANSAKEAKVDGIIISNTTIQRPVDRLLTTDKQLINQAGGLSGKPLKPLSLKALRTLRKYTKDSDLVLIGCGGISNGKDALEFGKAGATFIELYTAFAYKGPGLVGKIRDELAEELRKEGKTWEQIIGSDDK
Protocol: (§1) 1. The following buffer and stock solution were prepared:
(§2) Coenzyme Q2 (Sigma) was dissolved in DMSO to give a concentration of 10 mg/ml. […] The stock solution was made with 127.36 μl DHO, 127.36 μl DCIP and 318.4 μl Coenzyme Q2, made up to 80 ml with Buffer A. Final concentrations in assay wells were; DHO, 500 μM; Coenzyme Q, 50 μM; DCIP, 100 μM.
(§3) 2. […] Duplicate sets of plates were used such that one set received enzyme while a control set received no enzyme.
(§4) 3. […] Then 20 μl of DHODH solution was added to all the +enzyme plates and 20 μl of Buffer A was added to all the control −enzyme plates.
(§5) 4. 20 μl of DHO/Coenzyme Q2/DCIP solution was added to all the wells, after which plates were incubated at room temperature for […] and then read on a Tecan Safire spectrophotometer at 600 nm.
(§6) Recombinant DHODH from human or C. albicans was assayed in the same way. It is necessary to adjust the enzyme concentration and reaction time to take into account variations in activity of enzyme batches, thus the incubation time was 20 minutes for the C. albicans enzyme and 34 minutes for the human enzyme.

Aspergillus fumigatus = assay: MIC in YAG medium, A. fumigatus; format: cell-based; settings: 24 hrs at 35° C., >70% growth inhibition, read-out: MIC grade, A. fumigatus
Protocol: (§7) Between 1 and 5 mgs of compound were accurately weighed out into a sterile Eppendorf tube. The compound was dissolved in DMSO to give a solution containing 5 mg/mL. Tubes were stored at −20° C. until required.
(§8) On the day of testing thawed solutions were vortex mixed to ensure homogeneity. 30 μL of solution was removed and added to 570 μL of sterile water in a separate sterile Eppendorf. The thoroughly mixed solution was used to prepare a series of doubling dilutions in water, in a deep well plate. Thirteen replicate plates were prepared using a Minitrak by aspirating 20 μL from each well into eleven clear polystyrene 96 well plates.
(§9) Spores of Aspergillus spp. (Aspergillus fumigatus [two strains], Aspergillus terreus [two strains], Aspergillus niger and Aspergillus flavus) were harvested from cultures grown on Sabarauds agar for 5 days, and resuspended in PBS/Tween 80 to approx 1×10^7 cfu/mL. Each organism suspension was diluted in YAG medium (1% glucose, 1% ammonium chloride and 0.5% yeast extract) to 0.5-2×10^4 cfu/mL. 80 μL of an organism suspension was added to each well of the plate containing drug dilutions.
(§10) All plates were incubated for 24 hrs at 35° C. Growth was assessed by monitoring the optical density at 485 nm for each well. The MIC of a compound is the lowest drug concentration that inhibits growth of an organism by >70% compared with a drug free control. MICs are recorded as mg/L. In cases where the MIC of an organism is […] the MIC is repeated using a concentration range of 0.5-0.0005 mg/L.

Aspergillus niger [2] = assay: MIC in RPMI medium, A. niger; format: cell-based; settings: 24-48 hrs at 35° C., >80% growth inhibition, read-out: MIC grade, A. niger
Protocol: as §7, §8
(§11) Assays were also performed in RPMI medium. To perform MIC tests in this medium, dilutions of compounds are prepared in microtitre plates as described above. Fungal strains to be tested are grown and harvested in an identical manner to that described above, and each organism suspension was diluted in RPMI medium, containing 2% glucose and 0.135 M MOPS buffer (pH 7.0) to 0.5-2×10^4 cfu/mL, rather than in YAG medium. 80 μL of an organism suspension was added to each well of the plate containing drug dilutions.
(§12) All plates were incubated for 24-48 hrs at 35° C. Growth was assessed by monitoring the optical density at 485 nm for each well. […] The following organisms were tested: Aspergillus flavus, Aspergillus fumigatus AF293 and AF210, Aspergillus niger and Aspergillus terreus AT4 and AT49.

[3] = system: Aspergillus fumigatus AF210; assay: MIC in RPMI medium, A. fumigatus 210; format: cell-based; settings: 24-48 hrs at 35° C., >80% growth inhibition, read-out: MIC grade, A. fumigatus 210
Protocol: as §7, §8, §11, §12

Aspergillus flavus [4] = assay: MIC in YAG medium, A. flavus; format: cell-based; settings: 24 hrs at 35° C., >70% growth inhibition, read-out: MIC grade, A. flavus
Protocol: as §7, §8, §9, §10

[5] = system: Aspergillus fumigatus AF293; assay: MIC in RPMI medium, A. fumigatus; format: cell-based; settings: 24-48 hrs at 35° C., >80% growth inhibition, read-out: MIC grade, A. fumigatus
Protocol: as §7, §8, §11, §12

Aspergillus flavus [6] = assay: MIC in RPMI medium, A. flavus; format: cell-based; settings: 24-48 hrs at 35° C., >80% growth inhibition, read-out: MIC grade, A. flavus
Protocol: as §7, §8, §11, §12

A. fumigatus 210 = assay: MIC in YAG medium, A. fumigatus 210; format: cell-based; settings: Aspergillus fumigatus, 24 hrs at 35° C., >70% growth inhibition, read-out: MIC grade, A. fumigatus 210
Protocol: as §7, §8, §9, §10

Aspergillus terreus = assay: MIC in YAG medium, A. terreus; format: cell-based; settings: 24 hrs at 35° C., >70% growth inhibition, read-out: MIC grade, A. terreus
Protocol: as §7, §8, §9, §10

Aspergillus niger [7] = assay: MIC in YAG medium, A. niger; format: cell-based; settings: 24 hrs at 35° C., >70% growth inhibition, read-out: MIC grade, A. niger
Protocol: as §7, §8, §9, §10

[8] = molecular target: Recombinant A. fumigatus DHODH (Aspergillus fumigatus, UniProt Q4X169); assay: DHODH inhibition screen (DCIP reduction, 600 nm), A. fumigatus enzyme; format: biochemical
Sequence of Recombinant A. fumigatus DHODH (Q4X169 entry or part of it): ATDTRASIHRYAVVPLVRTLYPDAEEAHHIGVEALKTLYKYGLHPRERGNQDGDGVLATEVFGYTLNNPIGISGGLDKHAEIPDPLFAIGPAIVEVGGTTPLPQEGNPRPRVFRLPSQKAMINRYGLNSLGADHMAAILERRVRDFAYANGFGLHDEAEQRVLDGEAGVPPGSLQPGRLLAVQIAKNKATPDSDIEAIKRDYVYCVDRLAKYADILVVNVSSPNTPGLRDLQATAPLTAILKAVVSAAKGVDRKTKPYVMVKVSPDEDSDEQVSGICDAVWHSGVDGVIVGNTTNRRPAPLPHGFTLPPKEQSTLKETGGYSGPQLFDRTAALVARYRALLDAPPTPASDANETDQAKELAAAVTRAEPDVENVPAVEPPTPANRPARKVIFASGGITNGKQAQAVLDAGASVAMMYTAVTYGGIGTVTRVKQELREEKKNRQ
Protocol: as §1
Buffer A: 62.5 mM TrisHCl (pH8.0), 150 mM NaCl, 10% v/v glycerol
DHO/Coenzyme Q2/DCIP solution: 19.848 mg dihydroorotate (DHO; Sigma) was dissolved in 160 μl DMSO. Coenzyme Q2 (Sigma) was dissolved in DMSO to give a concentration of 10 mg/ml. 7.236 mg 2,6-dichloroindophenol (DCIP; Sigma) was dissolved in 160 μl DMSO. The stock solution was made with 127.36 μl DHO, 127.36 μl DCIP and 318.4 μl Coenzyme Q2, made up to 80 ml with Buffer A. Final concentrations in assay wells were; DHO, 500 μM; Coenzyme Q, 50 μM; DCIP, 100 μM.
2. Compounds were aliquotted into 384-well microtitre plates at a range of dilutions to give final concentrations in the assay of […]. Duplicate sets of plates were used such that one set received enzyme while a control set received no enzyme. Since compounds are frequently dissolved in DMSO or a DMSO/water mixture, assays were set up to give a final concentration of 1% (v/v) DMSO in wells.
3. Recombinant A. fumigatus DHODH was suspended in Buffer A to give a concentration of 1435.8 ng protein in 20 μl. Then 20 μl of DHODH solution was added to all the +enzyme plates and 20 μl of Buffer A was added to all the control −enzyme plates.
as §5
as §6, with “enzyme. Compounds are screened against a fungal and human enzyme to identify compounds which are selective for the fungal enzyme.” for “enzyme.”

Aspergillus terreus AT4 = assay: MIC in RPMI medium, A. terreus; format: cell-based; settings: 24-48 hrs at 35° C., >80% growth inhibition, read-out: MIC grade, A. terreus
Protocol: as §7, §8, §11, §12

[9] = molecular target: T2, Recombinant DHODH from human (Homo sapiens, UniProt Q02127); assay: DHODH inhibition screen (DCIP reduction, 600 nm), human enzyme; format: biochemical; settings: Table 3, read-out: IC50 values for Compound Examples 1 to 15 identified from screens, Human
T2 construct: His-tag; NusA (Nus-tag) fusion of vector pET43.1 (own knowledge of the vector) (N); made in house; host or cells: E. coli BL21 DE3
T2 sequence (Q02127 31-395 limits assumed): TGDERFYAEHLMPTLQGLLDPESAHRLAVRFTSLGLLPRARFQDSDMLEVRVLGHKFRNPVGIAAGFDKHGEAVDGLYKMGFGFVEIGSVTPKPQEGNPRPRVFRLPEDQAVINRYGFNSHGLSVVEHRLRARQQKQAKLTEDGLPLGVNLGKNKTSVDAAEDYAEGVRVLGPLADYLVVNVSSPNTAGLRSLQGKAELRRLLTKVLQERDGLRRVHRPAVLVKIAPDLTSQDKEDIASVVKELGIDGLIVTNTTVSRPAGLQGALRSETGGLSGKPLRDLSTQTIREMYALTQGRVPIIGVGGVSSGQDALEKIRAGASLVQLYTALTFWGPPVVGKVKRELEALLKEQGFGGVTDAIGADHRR
Protocol: as §1, §2, §3, §4, §5, §6

Aspergillus terreus AT49 = assay: MIC in RPMI medium, A. terreus 49; format: cell-based; settings: 24-48 hrs at 35° C., >80% growth inhibition, read-out: MIC grade, A. terreus 49
Protocol: as §7, §8, §11, §12

A. terreus 49 = assay: MIC in YAG medium, A. terreus 49; format: cell-based; settings: Aspergillus terreus, 24 hrs at 35° C., >70% growth inhibition, read-out: MIC grade, A. terreus 49
Protocol: as §7, §8, §9, §10

SMILES	IC50 [1] [µM]	MIC (Aspergillus fumigatus) [µg/mL]	MIC (Aspergillus niger [2]) [µg/mL]	MIC [3] [µg/mL]	MIC (Aspergillus flavus [4]) [µg/mL]	MIC [5] [µg/mL]	MIC (Aspergillus flavus [6]) [µg/mL]	MIC (A. fumigatus 210) [µg/mL]	MIC (Aspergillus terreus) [µg/mL]	MIC (Aspergillus niger [7]) [µg/mL]	IC50 [8] [µM]	MIC (Aspergillus terreus AT4) [µg/mL]	IC50 [9] [µM]	MIC (Aspergillus terreus AT49) [µg/mL]	MIC (A. terreus 49) [µg/mL]
Cc1c(-c2ccc(-c3ccccc3F)cc2)nc2ccc(F)cc2c1C(=O)O [Brequinar, brequinar]	143														
CCSc1nc2ccccc2c(=O)n1-c1ccccc1CC [Compound Example 13, 3-(2-Ethyl-phenyl)-2-ethylsulfanyl-3H-quinazolin-4-one]		1 to 10 (≈ 3.22 to 32.2 µM)	1 to 10 (≈ 3.22 to 32.2 µM)	> 10	> 10	1 to 10 (≈ 3.22 to 32.2 µM)	> 10	1 to 10 (≈ 3.22 to 32.2 µM)	1 to 10 (≈ 3.22 to 32.2 µM)	< 1	36.2	> 10	86.1	> 10	1 to 10 (≈ 3.22 to 32.2 µM)
CCSc1nc2cccc(C)c2c(=O)n1-c1ccccc1OC [Compound Example 14, 2-Ethylsulfanyl-3-(2-methoxy-phenyl)-5-methyl-3H-quinazolin-4-one]		< 1	< 1	1 to 10 (≈ 3.06 to 30.6 µM)	1 to 10 (≈ 3.06 to 30.6 µM)	1 to 10 (≈ 3.06 to 30.6 µM)	> 10	< 1	< 1	< 1	43.7	> 10	32.1	1 to 10 (≈ 3.06 to 30.6 µM)	< 1
CCSc1nc2ccccc2c(=O)n1-c1ccccc1C(C)C [Compound Example 15, 2-Ethylsulfanyl-3-(2-isopropyl-phenyl)-3H-quinazolin-4-one]		< 1	< 1	1 to 10 (≈ 3.08 to 30.8 µM)	> 10	< 1	> 10	< 1	1 to 10 (≈ 3.08 to 30.8 µM)	< 1	46.1	> 10	23.2	> 10	< 1
